Data reported in the supplement of paper PMC10307832.

Assays:
Assay in all cases: relative viability (nuclei count vs DMSO), 5 days (fraction); higher = more cells survive
GSK-J4 + Lapatinib = compound: CCOC(=O)CCNc1cc(N2CCc3ccccc3CC2)nc(-c2ccccn2)n1 [GSK-J4] + CS(=O)(=O)CCNCc1ccc(-c2ccc3ncnc(Nc4ccc(OCc5cccc(F)c5)c(Cl)c4)c3c2)o1 [Lapatinib] (partner 2 µM)
Outline: (§1)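 Lung cancer cell lines were pin-tool dosed in 1536-well plates on the day after seeding, with either a lone drug or a fixed anchor-drug dose plus five library-drug doses (not always all listed) in √10 steps. Nuclei were counted on 4× images after 5 days. Relative viability is the ratio of treated-well to vehicle-well nuclei counts, with each value a median of duplicate plates.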

GSK-J4 + Dasatinib = compound: CCOC(=O)CCNc1cc(N2CCc3ccccc3CC2)nc(-c2ccccn2)n1 [GSK-J4] + Cc1nc(Nc2ncc(C(=O)Nc3c(C)cccc3Cl)s2)cc(N2CCN(CCO)CC2)n1 [Dasatinib] (partner 0.075 µM)
Outline: as §1

AZ3146 + Crizotinib = compound: CN1CCC(CC1)OC2=CC(=C(C=C2)NC3=NC=C4C(=N3)N(C(=O)N4C)C5CCCC5)OC [AZ3146] + C[C@@H](Oc1cc(-c2cnn(C3CCNCC3)c2)cnc1N)c1c(Cl)ccc(F)c1Cl [Crizotinib] (partner 1 µM)
Outline: as §1

AZ3146 + Olaparib = compound: CN1CCC(CC1)OC2=CC(=C(C=C2)NC3=NC=C4C(=N3)N(C(=O)N4C)C5CCCC5)OC [AZ3146] + O=C(c1cc(Cc2n[nH]c(=O)c3ccccc23)ccc1F)N1CCN(C(=O)C2CC2)CC1 [Olaparib] (partner 8 µM)
Outline: as §1

Row | Cell Line | relative viability (GSK-J4 + Lapatinib; first compound 0.5 µM) | relative viability (GSK-J4 + Lapatinib; first compound 1.581 µM) | relative viability (GSK-J4 + Lapatinib; first compound 5 µM) | relative viability (GSK-J4 + Lapatinib; first compound 15.81 µM) | relative viability (GSK-J4 + Lapatinib; first compound 50 µM) | relative viability (GSK-J4 + Dasatinib; first compound 0.5 µM) | relative viability (GSK-J4 + Dasatinib; first compound 1.581 µM) | relative viability (GSK-J4 + Dasatinib; first compound 5 µM) | relative viability (GSK-J4 + Dasatinib; first compound 15.81 µM) | relative viability (GSK-J4 + Dasatinib; first compound 50 µM) | relative viability (AZ3146 + Crizotinib; first compound 0.08 µM) | relative viability (AZ3146 + Crizotinib; first compound 0.253 µM) | relative viability (AZ3146 + Crizotinib; first compound 0.8 µM) | relative viability (AZ3146 + Crizotinib; first compound 2.53 µM) | relative viability (AZ3146 + Crizotinib; first compound 8 µM) | relative viability (AZ3146 + Olaparib; first compound 0.08 µM) | relative viability (AZ3146 + Olaparib; first compound 0.253 µM) | relative viability (AZ3146 + Olaparib; first compound 0.8 µM) | relative viability (AZ3146 + Olaparib; first compound 2.53 µM) | relative viability (AZ3146 + Olaparib; first compound 8 µM)
1 | LXF-289 | 0.899 | 0.821 | 0.907 | 0.934 | 0.866 | 0.21 | 0.181 | 0.0979 | 0.121 | 0.177 | 0.848 | 0.886 | 0.795 | 0.781 | 0.444 | 1.13 | 0.989 | 1.07 | 1.18 | 1.06
2 | NCI-H23 | 0.994 |  | 0.772 | 0.778 | 0.674 | 0.872 | 0.73 | 0.723 | 0.723 | 0.617 | 0.398 | 0.515 | 0.516 | 0.425 | 0.305 | 0.291 | 0.289 | 0.389 | 0.356 | 0.338
3 | NCI-H322M | 0.533 | 0.623 | 0.842 | 0.514 | 0.528 | 0.269 | 0.19 | 0.237 | 0.23 | 0.278 | 0.683 | 0.876 | 0.9 | 0.763 | 0.6 | 0.839 | 0.839 | 0.644 | 0.813 | 0.729
4 | NCI-H358 | 0.452 | 0.414 | 0.434 | 0.456 | 0.367 | 0.201 | 0.132 | 0.139 | 0.152 | 0.158 | 0.587 | 0.616 | 0.425 | 0.398 | 0.177 | 0.555 | 0.578 | 0.592 | 0.583 | 0.442
5 | NCI-H460 | 1.05 | 0.924 | 0.809 | 0.955 | 0.364 | 0.524 | 0.445 | 0.471 | 0.37 | 0.363 | 0.729 | 0.844 | 0.664 | 0.11 | 0.0243 | 0.242 | 0.45 | 0.416 | 0.449 | 0.352
6 | NCI-H520 | 0.846 | 0.515 | 0.939 | 0.74 | 0.658 | 0.217 | 0.191 | 0.154 | 0.125 | 0.184 | 0.691 | 0.959 | 0.613 | 0.486 | 0.406 | 0.306 | 0.352 | 0.396 | 0.418 | 0.289
7 | NCI-H596 | 1.01 | 1.02 | 1 | 0.866 | 0.916 | 0.562 | 0.611 | 0.645 | 0.497 | 0.599 | 1.02 | 0.947 | 1.02 | 1.02 | 1.01 | 0.677 | 0.738 | 0.752 | 0.77 | 0.765
8 | NCI-H647 | 1.01 | 0.954 | 0.94 | 0.977 | 0.815 | 0.2 | 0.164 | 0.0733 | 0.285 | 0.131 | 0.983 | 1.12 | 0.978 | 0.763 | 0.201 | 0.412 | 0.474 | 0.592 | 0.603 | 0.237
9 | NCI-H650 | 0.841 | 0.579 | 0.614 | 0.783 | 0.614 | 0.512 | 0.507 | 0.277 | 0.406 | 0.324 | 0.571 | 0.721 | 0.827 | 0.781 | 0.542 | 0.271 | 0.361 | 0.385 | 0.46 | 0.413
10 | NCI-H661 | 0.483 | 0.472 | 0.405 | 0.349 | 0.386 | 0.862 | 0.755 | 0.636 | 0.641 | 0.649 | 0.979 | 1.14 | 1.03 | 1.11 | 0.814 | 0.806 | 0.768 | 0.736 | 0.791 | 0.678
11 | NCI-H727 | 0.827 |  | 0.996 | 0.795 | 0.5 | 0.338 | 0.305 | 0.522 | 0.298 | 0.223 | 0.813 | 0.796 | 0.8 | 0.586 | 0.365 | 0.632 | 0.632 | 0.701 | 0.853 | 0.775
12 | NCI-H838 | 1.25 | 0.748 |  | 0.938 | 0.858 | 0.325 | 0.24 | 0.23 | 0.266 | 0.275 | 0.797 | 0.798 | 0.656 | 0.613 | 0.281 | 0.771 | 0.769 | 0.766 | 0.724 | 0.253
13 | NCI-H1355 | 0.946 | 0.875 | 0.944 | 0.916 | 0.919 | 0.749 | 0.654 | 0.342 | 0.538 | 0.675 | 1.07 | 1.04 | 1.1 | 1.04 | 1.08 | 0.72 | 0.761 | 0.759 | 0.83 | 0.807
14 | NCI-H1437 | 0.851 | 0.693 | 0.713 | 0.727 | 0.17 | 0.426 | 0.438 | 0.353 | 0.307 | 0.126 | 0.875 | 0.906 | 0.853 | 1.02 | 0.863 | 0.589 | 0.611 | 0.611 | 0.635 | 0.532
15 | NCI-H1650 | 0.751 | 0.174 | 0.731 | 0.634 | 0.327 | 0.34 | 0.261 | 0.372 | 0.283 | 0.314 | 0.933 | 0.95 | 0.84 | 0.95 | 0.489 | 0.857 | 0.722 | 0.752 | 0.736 | 0.621
16 | NCI-H1651 | 0.84 | 0.779 | 0.814 | 0.863 | 0.839 | 0.537 | 0.306 | 0.367 | 0.443 | 0.477 | 0.671 | 0.811 | 0.912 | 0.844 | 0.871 | 0.191 | 0.185 | 0.2 | 0.214 | 0.202
